Results on 88 compounds are retold here after a melting point compilation (Tetko et al.; mined from patent text by program, amines drawn as free bases though some values may be those of a salt).

Where only a bound is given, the exact number is not on record here.

On to `CCOC(=O)c1ccc2c(Br)cccc2c1`, for which the melting point (in general, the temperature of the solid-liquid transition) lay in the range of 52 to 54 °C.

On to `CC1C(c2ccc(Cl)cc2Cl)CC(=O)N1O` (stereo not drawn), for which the melting point is 140 to 144 °C.

For the compound `CC(C)OC(=O)N1CCN(c2ccn3ncc(-c4cccn(C)c4=O)c3n2)CC1`, the melting point lay within 206 to 207 °C.

For `CSc1nc(O)c(NC(=O)c2ccco2)c(O)n1`, the melting point was in the range of 124 to 125 °C.

Regarding `C#CCCCOc1ccc(C=O)cc1OC`, the melting point fell in the range of 91 to 92 °C.

For the compound `Cc1[nH]c2cc(OCc3ccccc3)ccc2c1C(=O)C1CSC(c2cccnc2)N1` (stereo not drawn), the melting point lay in the range of 89 to 93 °C.

Consider `COc1ccc(-c2ccccc2)c(NC(=N)N2CCOCC2)c1`, for which the melting point fell in the range of 140 to 142 °C.

Consider `COc1ccc(COc2cccc(C(=O)Nc3ccc(C#N)cc3)c2)cc1`, for which the melting point fell in the range of 147 to 148 °C.

`CCNC1Cc2c[nH]c3ccc(OC)c(c23)C1(C)O` (stereo not drawn) gave a melting point of 185 to 187 °C.

Compound `CC(C)[C@@H]1CC[C@@H](C)C[C@@]1(O)CO` gave a melting point of 48 to 50 °C.

`COc1cc(OC)c2c(=O)[nH]c(-c3ccc(N4C[C@@H](C)N(C(C)=O)[C@@H](C)C4)cc3)nc2n1`: the melting point lay in the range of 279 to 280 °C.

As to `O=C1CC2(CCCC2)CC(=O)N1CCCCOc1cccc2c1SCCC2`, the melting point was determined as 69 °C.

In turn, `O=c1cc[nH]n1-c1c(Cl)cc(C(F)(F)F)cc1Cl` yielded a melting point of 228 °C.

For `CCCC1CCC2(C)C(=CCC3C4CCC(=O)C4(C)CCC32)C1` (stereo not drawn), the melting point lay in the range of 103 to 105 °C.

Compound `O=c1cc(-c2ccccc2Cl)[nH]c(=O)n1-c1ccc(C(F)(F)F)cn1` gave a melting point of 281 to 283 °C.

The compound `COc1ccc(C(c2ccc(N(C)C)cc2)c2ccc(N(C)C)cc2C(=O)O)cc1` (stereo not drawn) showed a melting point of 185 to 190 °C.

In turn, `CC(=NOCCO)c1ccc(-c2ccc(F)cc2)cc1` registered a melting point of 133 to 134 °C.

`Cc1ccc(OCc2c(F)cccc2Cl)c(NC(=N)Nc2ccc(Cl)cc2)n1` yielded a melting point of 148 to 149 °C.

`Cc1cccc(NC(=O)CN2C(=O)C3(COc4cc5c(cc43)CCO5)c3ccccc32)c1C` (stereo not drawn) yielded a melting point of 251 to 253 °C.

In turn, `CCCCCCCCCCCCCCC1COC2(CC(c3ccccc3)NC(c3ccccc3)C2)O1` (stereo not drawn) returned a melting point of 63 to 70 °C.

Turning to `CCCCCN1C(=O)C2(COc3cc(F)c(Cl)cc32)c2ccccc21` (stereo not drawn), the melting point lay in the range of 74 to 76 °C.

In the case of `O=C1c2ccccc2C(=O)c2oc(-c3ccccc3F)nc21`, the melting point was more than 260 °C.

In the case of `CC12CC(=O)NN=C1c1ccc(N)cc1C2` (stereo not drawn), the melting point came to 222 °C.

Regarding `CON(C)C(=O)Nc1ccc(OCCc2ccc(C(C)(C)C)cc2)cc1`, the melting point lay within 14 to 15 °C.

`N#Cc1cccc2c1ccc1nc(O)c(O)nc12` displayed a melting point of more than 300 °C.

On to `NC1=NC(c2ccc(OC(F)(F)F)cc2)(c2cccc(CCC3CC3)c2)C2=NCCCN12` (stereo not drawn), for which the melting point is 65 to 77 °C.

For the compound `CNC(=O)[C@@H]1CCCCN1S(=O)(=O)c1ccc(Cl)c(COc2cccc3c(-n4ccnc4)cc(C)nc23)c1Cl`, the melting point is 74 °C.

The compound `CCOC(=O)c1cnc2onc(C)c2c1N(CS(=O)(=O)c1ccc(OC)cc1)c1cccnc1` gave a melting point of 128 to 130 °C.

Consider `CCC(c1ccc(Br)cc1)N(O)C(=O)NC` (stereo not drawn), for which the melting point fell in the range of 110 to 112 °C.

In turn, `Cn1cc(C(=O)O)c(=O)c2cc3cc(F)c(N4CCNC(c5ccco5)C4)c(F)c3nc21` (racemic) gave a melting point of 295 to 296 °C.

The compound `Cc1c(-c2ccccc2)n(-c2cc([N+](=O)[O-])ccc2Cl)c(-c2ccccc2)cc1=O` had a melting point of 277 to 279 °C.

`O=Nc1c(-c2ccccc2)nc2sccn12` yielded a melting point of 175 to 177 °C.

`O=C(NS(=O)(=O)c1ccccc1C(=O)OC1COC1)Oc1ccccc1`: the melting point lay within 91 to 92 °C.

Turning to `O=C(c1cc(N2CCC(F)(F)CC2)ccn1)N(O)Cc1ccccc1`, the melting point lay in the range of 90 to 95 °C.

With `CCOC(=O)c1ccc(N)cc1O`, the melting point lay in the range of 113 to 115 °C.

As for `Cc1cc(NCCNc2cc(C)[nH]n2)n[nH]1`, the melting point fell in the range of 255 to 257 °C.

Compound `O=C(Nc1ccccc1)Oc1ccccc1` yielded a melting point of 123 to 124 °C.

The compound `CCCCCCCCCCCCCCCCCC(=O)Oc1ccc([N+](=O)[O-])cc1OC(=O)CCCCCCCCCCCCCCCCC` showed a melting point of 68 to 70 °C.

The compound `CO/N=C(/C(N)=O)c1ccccc1COc1cc(C)ccc1C` returned a melting point of 122 °C.

Turning to `COc1cc2nc(NC3CC3)nc(-c3cccc([N+](=O)[O-])c3)c2cc1OC`, the melting point lay within 140 to 142 °C.

`COc1ccc(-c2ccccc2)cc1[N+]([O-])=NC(=O)OC(C)C` showed a melting point of 102 to 106 °C.

Take `COc1cc(NC(=O)CCCCCN2CCN(c3ccccn3)CC2)c2nccc(C)c2c1`: the melting point is 120 to 121 °C.

With `O=C(O)COc1ccc2c(c1)CCc1sc(S(=O)(=O)CCC(c3ccccc3)c3ccccc3)nc1-2`, the melting point fell in the range of 175 to 177 °C.

For `CCCNC(=O)C1C=C2CC=C(OC)C=C2N1CCNC(C)=O` (stereo not drawn), the melting point is 127 to 128 °C.

In turn, `Cn1c(=O)c2c(ncn2CCCOS(C)(=O)=O)n(C)c1=O` returned a melting point of 112 to 113 °C.

`COc1ccc2c(c1)C(=O)N(C)C(C(Cl)(Cl)Cl)O2` (stereo not drawn) yielded a melting point of 107 to 110 °C.

With `NC(=O)c1cc([N+](=O)[O-])cc(Br)n1`, the melting point was in the range of 179 to 180 °C.

Turning to `CC1(c2ccccc2)OC(C=Cc2ccncc2)=CC1=O` (stereo not drawn), the melting point was 165 to 166 °C.

`Cn1nnnc1Cc1ccc2c(c1)c(C1=CCN(CCN3CCNC3=O)CC1)cn2-c1ccc(F)cc1`: the melting point is 174 to 176 °C.

`CC1(C)Oc2ccccc2C(c2ccc[nH]c2=O)C1O` (stereo not drawn) showed a melting point of 244 to 246 °C.

`COCCc1nc2c(N)nc3ccccc3c2n1CCOCCN(C)C(=O)c1ccccc1`: the melting point lay in the range of 93.5 to 97 °C.

The compound `CCOC(=O)C1=C(C)NC(c2csc(NC(C)=O)n2)=NC1c1ccc(F)cc1Cl` (stereo not drawn) registered a melting point of 220 to 223 °C.

The compound `O=C(c1ccc(-c2ccc(NC(=S)Nc3ccccc3)cc2)o1)N1CCN2CCC1CC2` yielded a melting point of 171 to 175 °C.

`CC1(C)CC(=O)C(Cc2ccc(Cl)cc2)C(=O)C1` registered a melting point of 188 to 190 °C.

For the compound `Cn1cc(C(=O)NCc2ccc(Cl)cc2)c(=O)c2cc(CN3CC4CC3CO4)ccc21` (stereo not drawn), the melting point lay in the range of 162 to 163 °C.

Take `Cc1nn(C)c(NCC(C)(C)C)c1NCc1ccc(F)cc1`: the melting point lay in the range of 32 to 39 °C.

Take `CCN(CC)CCC(=O)Nc1cccc2c1C(=O)c1c(NC(=O)CCN(CC)CC)cccc1C2=O`: the melting point fell in the range of 166 to 167 °C.

Compound `COC(=O)C(=O)c1ccc(OCCOc2ccc(-c3ccccc3)cc2)cc1` returned a melting point of 143 to 145 °C.

For `CCOC(=O)n1nc2cc(Cl)ccc2c1N`, the melting point lay in the range of 163 to 165 °C.

Compound `N#Cc1ccc(OCCCCCOc2cccc(-c3cc4ccc(C#N)cc4o3)c2)cc1` came in with a melting point of 138 to 140 °C.

In turn, `CCOC(=O)c1ncn(-c2cc(C(F)(F)F)ccc2[N+](=O)[O-])c1C` came in with a melting point of 140 °C.

`O=C(N(C1CCNCC1)C1CC1)N1N=C2c3cc(F)ccc3OC[C@@H]2[C@@H]1c1ccccc1` (racemic) showed a melting point of 142 °C.

`CN1Cc2cccnc2C(N2CCN(C(=O)CC3CCN(C(=O)OC(C)(C)C)CC3)CC2)c2ccc(Cl)cc21` (stereo not drawn): the melting point was in the range of 86 to 98 °C.

Take `Cc1cc(NC(=O)C(C)(O)COc2ccc(CCF)cc2)ccc1[N+](=O)[O-]` (stereo not drawn): the melting point was 102 to 105 °C.

The compound `CN1CCN(c2c(F)c(N)c3c(=O)c(C(=O)O)cn(C4CC4)c3c2F)CC1` yielded a melting point of 247 to 248 °C.

`CCCC(=O)OC(C)OC(=O)Nc1ccc(Cl)cc1` (stereo not drawn) showed a melting point of 52 to 54 °C.

`Cc1nccn1Cc1c(C(=O)O)nc2c(=O)[nH]c3cc(C(F)(F)F)ccc3n12` yielded a melting point of more than 250 °C.

Take `CN1CC(=O)Nc2ccc(-c3cccc([N+](=O)[O-])c3)cc21`: the melting point was 237 to 243 °C.

`COc1cc2nc(Cl)nc(Cl)c2c(OC)c1OC` returned a melting point of 213 to 215 °C.

Turning to `CN1CC(N2CC(=O)NC2=O)CC2c3cccc4[nH]cc(c34)CC21` (stereo not drawn), the melting point lay in the range of 295 to 297 °C.

Regarding `Cc1cnc(NS(C)(=O)=O)cc1C(c1cc(F)ccc1F)S(=O)(=O)c1ccc(Cl)cc1` (stereo not drawn), the melting point was 214 to 217 °C.

`COc1ccc(CN(CCN(C)CCCCCCNC(=O)NCCCOc2cccc(CN3CCCCC3)c2)c2ccccn2)cc1` displayed a melting point of 75 °C.

For the compound `OC1CSC(Oc2ccncc2)C(O)C1O` (stereo not drawn), the melting point fell in the range of 165 to 168 °C.

`C=CCC(CC=C)(CC=C)c1ccc(-c2nc3cc(C#N)c(C#N)cc3n2CCC)cc1`: the melting point lay in the range of 132 to 134 °C.

Turning to `CC(C)(C)OC(=O)N1CCN(c2cccc3ccc(Nc4ncccc4N)cc23)CC1`, the melting point was in the range of 183 to 184 °C.

Take `CC(=O)OCC(C(OC(C)=O)c1ccc([N+](=O)[O-])cc1)[N+](=O)[O-]` (stereo not drawn): the melting point was 63 to 66 °C.

As to `CCOC(=O)c1nc(-c2cccc(Cl)c2)c(-c2ccc(=O)n(C(C)C)n2)s1`, the melting point lay within 134 to 136 °C.

As for `O=C1NC(=O)C(Cc2ccc(OC[C@@H]3CCCN3c3ccc4ccccc4n3)cc2)S1` (stereo partly drawn), the melting point fell in the range of 81 to 83 °C.

With `COC(=O)c1nccc2c1[nH]c1ccc(Oc3ccc([N+](=O)[O-])cn3)cc12`, the melting point fell in the range of 150 to 155 °C.

For `CCSc1ccc(-c2coc3ccc(-c4nnc(C)o4)nc23)cc1`, the melting point fell in the range of 174 to 175 °C.

As to `COc1ccc(Nc2nccc(-c3cccs3)n2)cc1`, the melting point was 158 to 160 °C.

For the compound `COc1ccc(-c2nc3n(c2-c2ccncc2)CCS3=O)cc1` (stereo not drawn), the melting point was in the range of 165 to 170 °C.

For the compound `CCCCOc1nc(N)c2[nH]c(=O)n(CCCCN(CCCN3CCCC3=O)Cc3cccc(CC(=O)OC)c3)c2n1`, the melting point fell in the range of 115 to 116 °C.

The compound `COc1cc(C(=O)N(C(C)C)C2CCCCC2)ccc1Br` gave a melting point of 104 to 107 °C.

For `CCC1(Br)Cc2cc(OCC(=O)O)c(C)c(C)c2C1=O` (stereo not drawn), the melting point lay within 136 to 139 °C.

Regarding `COC(=O)c1cccc(I)c1C(=O)NC(C)(C)CS(C)=O` (stereo not drawn), the melting point lay within 151 to 152 °C.

`COc1cccc(-n2c(-c3sc(Nc4ccc(Cl)cc4)nc3C)nc3ccccc3c2=O)c1` returned a melting point of 243 to 244 °C.

Consider `CC1(C)COC(=O)N1Cc1ccccc1[N+](=O)[O-]`, for which the melting point was 103 to 106 °C.
